A word on the melting point: it is the temperature of the solid-liquid transition.

The record followed here is patent US10660789B2, “1,4-dihydropyridine derivatives with HSP modulating activity” (Richter Gedeon NYRT., priority 2011, dated 2020).

In one series the test system is other Hsps. The series can be described thus: Other in vitro HSP modulating effects (Table 3). It is filed as cell-based, mouse and human. Also on record: key: +: co-inducing activity; −: silencing activity; 0: with the experimental methods applied no other HSP modulating effects could be identified. The protocol: (§1) The Hsp co-inducing effect of the compounds on stress response was tested on B16 mouse melanoma and SHSY5Y human neuroblastoma cell lines stably transfected with Hsp promoter probing plasmids. This kind of promoter probing, using the promoter region of a given gene conjugated with fluorescent protein is used as a best and fastest test system for finding drugs which modulate the activity of the gene followed by the given promoter (Wyshocka et al., Mol. Cel. Biochem. 215:153-156, 2000).
(§2) Reporter plasmids, containing the Hsp70 and/or Hsp25 promoter conjugated to either YFP or GFP (yellow or green fluorescent protein), were stably transfected into the cells and the expression of YFP or GFP was followed by flow cytometry. Cells were either kept at 37° C. or exposed to heat shock at 42° C. for 1 hour followed by a 16 hour recovery period at 37° C. in the presence or absence of different concentrations of the test compound. After recovery the expression of YFP or GFP which is in straight correlation with the promoter activity of Hsp70 or Hsp27 genes was followed by measuring the fluorescence intensity of the cells by flow cytometry. Fluorescence intensity is in straight correlation with the amount of fluorescent protein (GFP or YFP) produced under the control of hsp promoter. The mean fluorescence intensity of YFP or GFP produced is shown as “Hsp promoter activity”.
(§3) Cells were homogenously distributed on 6-well plates in 1×10^5 cells/well density. B16-pHsp25-GFP and B16-pHsp70-YFP melanoma cells were grown in RPMI-1640 medium supplemented with 10% Fetal bovine serum (FBS), penicillin (200 units/ml), streptomycin (200 μg/ml) and 2 mM L-Glutamine. For maintaining the SH-SY5Y-pHsp25-GFP and SH-SY5YpHsp70-YFP neuroblastoma cell lines Dulbecco's modified Eagle's medium (DMEM-F-12) containing 10% FBS, 2 mM L-Glutamine, penicillin (200 units/ml), streptomycin (200 μg/ml) and MEM non-essential amino acids were used. Before the treatments both cell lines were incubated at 37° C. in a saturated humidity atmosphere containing 95% air and 5% CO2. After 24 h incubation cells were pretreated with compounds of the invention in four different concentrations (usually in 3; 10; 20 and 50 μM) 30 min before the heat shock at 42° C. for 1 h and then incubated further at 37° C. for 16 h (recovery period). After this procedure cells were trypsinized and suspensed in 500 μl serum-free DMEM-F12 medium. The changes in cells' fluorescence were detected using BD FACSCalibur flow cytometer.
SY-SY5Y and B16 cells were extracted in NP-40 lysis buffer (PBS pH 7.4, 1% protease inhibitor coctail and 1% Triton X-100). The cell extracts were then constantly agitated at 4° C. for 2 h. The cell extracts were centrifuged at 12000×g for 30 min and supernatants were saved. After the protein concentration measurement 15 μg of total protein was separated by sodium dodecyl sulfate-polyacrylamide gel electrophoresis (SDS-PAGE) under reducing conditions according to the method of Laemmli. Proteins were blotted onto PVDF membrane. The blot was incubated overnight at 4° C. in the presence of mouse α-Hsp25, α-Hsp70, α-Hsp60 és α-Hsp90 monoclonal antibodies diluted in PBS. Then, the membrane was washed three times in PBS-0.05% Tween and incubated for 1 h in peroxidase-conjugated anti-mouse IgG antibody diluted 1:50000 in PBS containing 3% non-fat dry milk. The immune complexes were detected with chemo-luminescent substrate of peroxidase according to the supplier's instructions. Images taken from the membranes were analyzed using AlphaEase FC software.

The test system of another series is Hsp70 promoter. The series can be described thus: Hsp promoter probing, Hsp70 promoter-YFP reporter, flow cytometry (Table 3). It is filed as cell-based, mouse and human. Details: key: +: co-inducing activity; −: silencing activity; 0: with the experimental methods applied no other HSP modulating effects could be identified. Conditions: heat shock 42° C. 1 h, 16 h recovery; B16 or SHSY5Y reporter cells, cell line per value not stated. The protocol: as §1
The Hsp encoding genes are transactivated through the binding of HSF to the heat shock element found on the DNA upstream of the Hsp genes, in the so called promoter region. In the absence of heat stress, the heat shock factors are present as monomers. Upon heat stress, however, the heat shock factors form trimers, which are the active components, able to bind to heat shock elements. Once HSF is bound to the heat shock element in the promoter of Hsp genes, the gene following the promoter region is transcriptionally active.
as §2, §3
For orientation: In flow cytometry, cells or beads pass a laser one at a time.

The structures appear in SMILES notation. Counter-ions that a name gives are not always drawn.

Regarding `COC(=O)C1=C(C)N(C)C(CCN2CCc3cc(OC)c(OC)cc3C2)=C(C(=O)OC)C1c1ccc(C(F)(F)F)cc1.Cl` (centres unmarked) [Example 41, Dimethyl 2-[2-(6,7-dimethoxy-1,2,3,4-tetrahydroisoquinolin-2-yl)-ethyl]-1,6-dimethyl-4-(4-trifluoromethylphenyl)-1,4-dihydropyridine-3,5-dicarboxylate hydrochloride], the melting point lay in the range of 176 to 181 °C. The “Other in vitro effects” value in the series with other Hsps amounted to 0. Besides, the Hsp70 modulation result with Hsp70 promoter was “+”.

`COC(=O)C1=C(CCN(C)C)N(C)C(CCN(C)C)=C(C(=O)OC)C1c1cc(F)cc(F)c1` [Example 25, Dimethyl 4-(3,5-Difluorophenyl)-2,6-bis-(2-dimethylaminoethyl)-1-methyl-1,4-dihydropyridine-3,5-dicarboxylate dihydrochloride]: in the series on other Hsps, the “Other in vitro effects” value was found to be 0. The Hsp70 modulation entry in the series on Hsp70 promoter is given as “+”.

The molecule `COC(=O)C1=C(C)N(C)C(C)=C(C(=O)OC)C1c1ccc(F)cc1` [Example 2, Dimethyl 1,2,6-trimethyl-4-(4-fluorophenyl)-1,4-dihydropyridine-3,5-dicarboxylate] returned a melting point of 184 to 185 °C. Also, the “Other in vitro effects” value in the series with other Hsps stood at 0. In addition, in the series on Hsp70 promoter, the Hsp70 modulation result was “+”.

The molecule `COC(=O)C1=C(C)N(C)C(C)=C(C(=O)OC)C1c1ccccc1C(F)(F)F` [Example 8, Dimethyl 1,2,6-trimethyl-4-(2-trifluoromethylphenyl)-1,4-dihydropyridine-3,5-dicarboxylate] came in with a melting point of 168 to 170 °C. In addition, the “Other in vitro effects” value in the series on other Hsps came out at 0. Besides, in the series with Hsp70 promoter, the Hsp70 modulation entry is “+”.

As for `COC(=O)C1=C(CCN(C)C)N(C)C(CCN2CCCCC2)=C(C(=O)OC)C1c1ccc(C(F)(F)F)cc1` (centres unmarked) [Example 30, Dimethyl 2-(2-dimethylamino-ethyl)-1-methyl-6-(2-piperidin-1-yl-ethyl)-4-(4-trifluoromethylphenyl)-1,4-dihydropyridine-3,5-dicarboxylate dihydrochloride], in the series on other Hsps, the “Other in vitro effects” value was 0. The Hsp70 modulation entry with Hsp70 promoter is “+”.

`COC(=O)C1=C(C)N(C)C(C)=C(C(=O)OC)C1c1cc(F)cc(F)c1` [Example 24, Dimethyl 4-(3,5-difluorophenyl)-1,2,6-trimethyl-1,4-dihydropyridine-3,5-dicarboxylate]: the melting point is 167 to 168 °C. The “Other in vitro effects” value in the series with other Hsps is 0. Besides, in the series on Hsp70 promoter, the Hsp70 modulation result was “+”.

On to `COC(=O)C1=C(C)N(C)C(C)=C(C(=O)OC)C1c1ccc(-n2ccnc2)cc1` [Example 10, Dimethyl 1,2,6-trimethyl-4-(4-(1-imidazoly)lphenyl)-1,4-dihydropyridine-3,5-dicarboxylate], for which the melting point was 201 to 202 °C. Moreover, the “Other in vitro effects” value in the series on other Hsps worked out at 0. Moreover, in the series with Hsp70 promoter, the Hsp70 modulation entry was “+”.

Consider `COC(=O)C1=C(C)N(C)C(C#N)=C(C(=O)OC)C1c1ccc(C(F)(F)F)cc1` (centres unmarked) [Example 47, Dimethyl 2-cyano-1,6-dimethyl-4-(4-trifluoromethylphenyl)-1,4-dihydropyridine-3,5-dicarboxylate], for which the melting point was in the range of 129 to 132 °C. In addition, the “Other in vitro effects” value in the series with other Hsps was found to be 0. The Hsp70 modulation result in the series with Hsp70 promoter is recorded as “+”.

As for `CCOC(=O)C1=CN(Cc2ccccc2)C=C(C(=O)OCC)C1c1ccccc1` [Example 38, Diethyl 1-benzyl-4-phenyl-1,4-dihydropyridine-3,5-dicarboxylate, reference compound], the “Other in vitro effects” value with other Hsps amounted to 0. In addition, the Hsp70 modulation entry with Hsp70 promoter is reported as “+”.

Take `COC(=O)C1=C(CCN(C)C)N(C)C(CCN2CCc3cc(OC)c(OC)cc3C2)=C(C(=O)OC)C1c1ccc(C(F)(F)F)cc1` (centres unmarked) [Example 42, Dimethyl 2-[2-(6,7-dimethoxy-1,2,3,4-tetrahydroisoquinolin-2-yl)-ethyl]-6-(2-dimethylamino-ethyl)-1-methyl-4-(4-trifluoromethylphenyl)-1,4-dihydropyridine-3,5-dicarboxylate dihydrochloride]: the “Other in vitro effects” value in the series on other Hsps was 0. Further, the Hsp70 modulation entry in the series with Hsp70 promoter was “+”.
